Results: ChEMBL document CHEMBL1145717, “Nostopeptins A and B, Elastase Inhibitors from the Cyanobacterium Nostoc minutum” (J Nat Prod, 1997)
Values after ≈ are worked out from the molar mass of the structure shown. Active and inactive are the calls of the source. No cut-off for these calls is given here.

Legend:
[1] = Inhibition of elastase
[2] = Inhibition of chymotrypsin
Papain (Carica papaya) = target: T1, Papain (Carica papaya) (UniProt P00784); test: Inhibition of papaya papain at 100 ug/ml
T1 sequence (whole entry): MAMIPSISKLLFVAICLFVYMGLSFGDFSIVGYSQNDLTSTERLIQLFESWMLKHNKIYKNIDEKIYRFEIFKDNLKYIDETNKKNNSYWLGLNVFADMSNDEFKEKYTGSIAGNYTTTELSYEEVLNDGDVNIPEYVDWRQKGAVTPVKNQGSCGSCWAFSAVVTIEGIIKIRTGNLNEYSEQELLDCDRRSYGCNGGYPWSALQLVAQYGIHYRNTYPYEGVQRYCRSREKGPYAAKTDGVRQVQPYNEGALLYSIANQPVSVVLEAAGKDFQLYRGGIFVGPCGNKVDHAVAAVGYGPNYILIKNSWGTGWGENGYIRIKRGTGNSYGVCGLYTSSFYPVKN

[3] = Inhibition of trypsin at 100 ug/ml
[4] = target: Prothrombin (Homo sapiens) (UniProt P00734); test: Inhibition of thrombin at 100 ug/ml
[5] = target: Plasminogen (Homo sapiens) (UniProt P00747); test: Inhibition of plasmin at 100 ug/ml
Plasminogen (Homo sapiens), sequence (P00747 97-580 limits assumed): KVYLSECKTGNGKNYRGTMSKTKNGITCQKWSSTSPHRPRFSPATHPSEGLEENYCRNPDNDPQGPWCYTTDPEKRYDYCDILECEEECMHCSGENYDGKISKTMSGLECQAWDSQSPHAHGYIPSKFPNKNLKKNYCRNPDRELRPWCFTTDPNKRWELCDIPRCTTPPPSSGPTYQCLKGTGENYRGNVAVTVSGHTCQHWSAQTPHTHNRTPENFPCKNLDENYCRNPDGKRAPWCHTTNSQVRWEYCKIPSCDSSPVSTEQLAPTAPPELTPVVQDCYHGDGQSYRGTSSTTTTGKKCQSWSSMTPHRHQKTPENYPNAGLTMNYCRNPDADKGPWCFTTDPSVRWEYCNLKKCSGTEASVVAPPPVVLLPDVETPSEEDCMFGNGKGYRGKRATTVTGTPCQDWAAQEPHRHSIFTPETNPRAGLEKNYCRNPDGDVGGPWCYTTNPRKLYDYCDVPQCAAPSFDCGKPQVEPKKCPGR
Plasminogen (Homo sapiens), sequence (P00747 581-810 limits assumed): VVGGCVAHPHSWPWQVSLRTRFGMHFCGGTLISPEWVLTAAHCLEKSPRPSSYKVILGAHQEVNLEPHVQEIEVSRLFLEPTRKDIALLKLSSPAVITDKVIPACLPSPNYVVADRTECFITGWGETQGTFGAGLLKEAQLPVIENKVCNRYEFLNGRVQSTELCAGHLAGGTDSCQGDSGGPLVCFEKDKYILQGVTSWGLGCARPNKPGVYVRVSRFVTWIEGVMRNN

Structure (SMILES)	IC50 [1]	IC50 [2]	Activity (Papain (Carica papaya))	Activity [3]	Activity [4]	Activity [5]
CCCC(=O)N[C@@H](CCC(N)=O)C(=O)N1CC(C)C2OC(=O)[C@H]([C@@H](C)CC)NC(=O)[C@H](Cc3ccc(O)cc3)N(C)C(=O)[C@H]([C@@H](C)CC)N3C(=O)C(CCC3O)NC(=O)[C@H](CC(C)C)NC(=O)[C@H]21 (some centres not stated) [NOSTOPEPTIN A]	1.3 µg/mL (≈ 1.36 µM)	1.4 µg/mL (≈ 1.47 µM)	inactive	inactive	inactive	inactive
CC[C@H](C)[C@@H]1NC(=O)[C@H](Cc2ccc(O)cc2)N(C)C(=O)[C@H]([C@@H](C)CC)N2C(=O)C(CCC2O)NC(=O)[C@H](CC(C)C)NC(=O)[C@@H]2C(OC1=O)C(C)CN2C(=O)[C@H](CCC(N)=O)NC(C)=O (some centres not stated) [NOSTOPEPTIN B]	11 µg/mL (≈ 11.9 µM)	1.6 µg/mL (≈ 1.73 µM)	inactive	inactive	inactive	inactive
